Reference: US20130030045A1, “METHOD OF PREVENTING AND TREATING OSTEOPOROSIS” (priority 2011, published 2013)
Like-named read-outs stand apart in the source and are kept apart here.

Tests used:
[1] = tested on: MBMMφ cells; assay: TRAP activity assay, differentiation of MBMMφ cells induced with RANKL and M-CSF; assay type: cell-based, mouse; conditions: for IC50: Mus musculus, 2 days with compound, then 20 ng/ml RANKL and 10 ng/ml M-CSF for 5 days, read-out: IC50, s-TRAP activity (inhibition of differentiation of MBMMφ cells)
Description: In some embodiments of the present invention, preosteoclast cells used are obtained from bone marrow in hind leg bone of C57BL/6J Narl mice, called as MBMMφ cells (mouse bone marrow macrophages), and are cultured in alpha-MEM medium (including 10% FBS and 1× antibiotic-antimycotic solution) and then added with M-CSF (macrophage colony-stimulating factor) and RANKL (receptor for activation of nuclear factor kappa B ligand) for inducing cell differentiation and maturation.
(§1) The cultured medium for cells derived from MBMMφ differentiation is removed, and cells are added with new medium. After incubation for 1 hour, and the activity of secretory type acid phosphatase in the medium is measured. First, 30 μl medium to be measured is taken out and added with […] TRAP assay reagent (0.1 M acetate buffer, 60 mM sodium tartrate and 5 mg/ml pNPP) followed by incubating for 30 minutes at 37° C., then adding 60 μl 0.5N NaOH solution to terminate the reaction and OD value at 405 nm of each specimen being measured.
In an embodiment, different concentrations of flavone (chemical structure as shown in FIG. 2(A)), 6-methoxy flavone (FIG. 2(B)), 7-methoxy flavone (FIG. 2(C)), 6-hydroxy flavone (FIG. 2(D)) and 7-hydroxy flavone (FIG. 2(E)) are respectively added into the cultured medium of MBMMφ cells, which had been cultured in 10 ng/ml M-SCF without treating with flavone components for 5 days, for 2 days. Next, after adding 20 ng/ml RANKL and 10 ng/ml M-CSF to induce cell differentiation for another 5 days, TRAP activity assay is performed.

[2] = tested on: RAW 264.7 cells; assay: TRAP activity assay, differentiation of RAW 264.7 cells; assay type: cell-based, mouse; conditions: at 8 μM, 16 μM, and 32 μM; compared to control
Description: as §1
In another embodiment, different concentrations of 7-methoxy flavone are respectively added into the cultured medium of RAW 264.7 cells (mouse leukaemic monocyte macrophages, another kind of preosteoclast cells) for 2 days. Next, after adding 20 ng/ml
RANKL and 10 ng/ml M-CSF to induce RAW 264.7 cell differentiation for 3 days, TRAP activity assay is then performed.

[3] = tested on: RAW 264.7 cells; assay: Toxicity to RAW 264.7 cells; assay type: cell-based, mouse; conditions: data not shown
[4] = tested on: MC3T3-E1 cells; assay: Alkaline phosphatase (ALP) assay, differentiation of MC3T3-E1 cells; assay type: cell-based; conditions: 4 days
Description: In experiments, 10,000 cells/well are cultured with alpha-MEM medium (including 10% FBS and 1× antibiotic-antimycotic solution) for 4 days at 37° C. in 5% CO2 incubator. After adding different concentrations of methoxy flavones or hydroxy flavones to react for 4 days, the cultured medium is removed and 100 μl 4% formaldehyde is added to fix cells for 10 minutes. After washing cells, 30 μl p-nitrophenyl phosphate (pNPP) solution is added to react for 30 minutes at 37° C., and then 30 μl 0.5 N NaOH is added to stop the reaction. Finally, OD value is measured at […] using ELISA reader.
In an embodiment, different concentrations of 6-methoxy flavone and 7-methoxy flavone are respectively added into MC3T3-E1 cells (a kind of preosteoblast cells) in alpha-MEM medium (containing 10% FBS, 1× antibiotic-antimycotic solution, 10 mM β-glycerophsphate, 50 μg/ml VitC, 10^−7 M dexamethasone) for 4 days to induce cell osteogenic differentiation and maturation. Because differentiated MC3T3-E1 cells will express the ALP activity, ALP activity assay is used to know the extent of cell differentiation. FIGS. 5(A) and 5(B) illustrate ALP activities at four different concentrations (1.25 μM, 2.5 μM, 5 μM, 10 μM) of 6-methoxy flavone and 7-methoxy flavone, respectively, in comparison with controls (with only PBS, or without 6-methoxy flavone or 7-methoxy flavone but with equal volume of vehicle, DMSO).
In still another embodiment, different concentrations (0.4 μM, 2 μM, 10 μM, 50 μM) of flavone, 7-methoxy flavone and 6-hydroxy flavone are respectively added into MC3T3-E1 cells in alpha-MEM medium with 10% FBS, 1× antibiotic-antimycotic solution, 10 mM β-glycerophsphate, 50 μg/ml Vitamin C, and 10^−7 M dexamethasone for 4 day incubation to induce cell differentiation and maturation. FIGS. 7(A)-7(C) illustrate ALP activities of MC3T3-E1 cells after exposed to four different concentrations of flavone, 7-methoxy flavone and 6-hydroxy flavone, respectively, in comparison with control (without flavone, 7-methoxy flavone or 6-hydroxy flavone, but with vehicle DMSO).

[5] = tested on: MC3T3-E1 cells; assay: MTT assay, MC3T3-E1 cell growth; conditions: 1 day
From the text: In an embodiment, different concentrations of flavone, 6-methoxy flavone, 7-methoxy flavone, 6-hydroxy flavone and 7-hydroxy flavone are respectively added into 3,000 MC3T3-E1 cells per well in the cultured medium for 1 day.

[6] = tested on: MC3T3-E1 cells; assay: Alizarin Red S stain, calcium deposition of MC3T3-E1 cells; assay type: cell-based; conditions: at 5 μM, 10 μM, 20 μM and 40 μM; 20 days
Description: In an embodiment, different concentrations (2.5 μM, 5 μM, 10 μM, 20 μM and 40 μM) of 7-methoxy flavone are respectively added into the cultured medium of MC3T3-E1 cell incubated for 20 days, wherein the cultured medium with 7-methoxy flavone is changed every 4 days. Next, Alizarin Red S stain is used to observe the calcification situation of MC3T3-E1 cells, and OD value at 562 nm is measured for quantitative analysis.

[7] = tested on: SaOS-2 cells; assay: Calcium staining for calcium deposition (CaP assay) of SaOS-2 cells; assay type: cell-based, human; conditions: 10 μM, 7 day; data not shown
[8] = tested on: human mesenchymal stem cells (hMSCs); assay: Calcein fluorescent test for calcium precipitation, osteogenesis of human mesenchymal stem cells; assay type: cell-based; conditions: FIG. 10, calcein fluorescent test
From the text: FIGS. 10(A)-10(D) respectively illustrate the effects of 6-methoxy flavone, 7-methoxyl flavone, 7-hydroxy flavone, and 6-hydroxy flavone on the osteogenesis of human mesenchymal stem cells, based on calcein fluorescent test for calcium precipitation.
Moreover, the present invention also measures the effects of methoxy flavones and hydroxyl flavones on human mesenchymal stem cells (hMSCs).

[9] = tested on: MBMMφ cells; assay: MTT assay, MBMMφ cell growth
Description: (§2) In an embodiment, different concentrations (0 μM, 1 μM, 5 μM, 10 μM, 15 μM, 20 μM, and 25 μM) of 7-methoxy flavone are respectively added into 3,000 MBMMφ cells/well in the cultured medium containing M-CSF for 1 day incubation. Next, MTT reagent is used to detect the OD value of cells so as to determine the growth situation of MBMMφ cells.

[10] = tested on: MBMMφ cells
Description: as §2

[11] = at the concentration of equal to or larger than 5 μM
[12] = at the concentration of equal to or larger than 10 μM

| IC50 [1] [µM] | Compound | effect on differentiation of MBMMφ cells (s-TRAP activity) [1, 11] | effect on differentiation of RAW 264.7 cells (TRAP activity) [2] | toxicity to RAW 264.7 cells [3] | effect on differentiation of MC3T3-E1 cells (ALP activity) ([4]; at 4 μM and 16 μM, FIG. 6) | effect on differentiation of MC3T3-E1 cells (ALP activity) ([4]; at 5 μM and 10 μM, FIG. 5) | effect on differentiation of MC3T3-E1 cells (ALP activity) ([4]; at 10 μM and 50 μM, FIG. 7) | growth of MC3T3-E1 cells (MTT, cytotoxicity) ([5]; mouse) | calcium deposition of MC3T3-E1 cells (Alizarin Red S, OD 562 nm) [6] | calcium deposition of SaOS-2 cells [7] | calcium deposition of hMSCs [8] | growth of MBMMφ cells (MTT, cytotoxicity) ([9]; 0-25 μM, 1 day incubation, medium containing M-CSF) | effect on differentiation of MBMMφ cells (s-TRAP activity) ([1]; 1 μM, 5 μM, 10 μM, 20 μM, in comparison with control) | effect on differentiation of MC3T3-E1 cells (ALP activity) ([4]; 0.25 μM, 1 μM, 4 μM, 16 μM, FIG. 6) | effect on differentiation of MC3T3-E1 cells (ALP activity) ([4]; 0.4 μM, 2 μM, 10 μM, 50 μM, FIG. 7) | growth of MBMMφ cells (MTT, cytotoxicity) [10] | growth of MBMMφ cells (MTT, cytotoxicity) ([9]; not shown) | effect on differentiation of MBMMφ cells (s-TRAP activity) [1, 12] | effect on differentiation of MC3T3-E1 cells (ALP activity) ([4]; at 16 μM, FIG. 6) | growth of MC3T3-E1 cells (MTT, cytotoxicity) ([5]; different concentrations, FIG. 8) |
| --- | --- | --- | --- | --- | --- | --- | --- | --- | --- | --- | --- | --- | --- | --- | --- | --- | --- | --- | --- | --- |
| 7.1 ± 0.6 | COc1ccc2c(=O)cc(-c3ccccc3)oc2c1 [7-methoxy flavone] | manifestly inhibit the differentiation of MBMMφ cells | significantly inhibit the differentiation of RAW 264.7 cells | no toxicity to RAW 264.7 cells | significantly stimulate the differentiation of MC3T3-E1 cells | efficiently enhance the differentiation of MC3T3-E1 cells | obviously stimulate the differentiation of MC3T3-E1 cells | do not affect the growth of MC3T3-E1 cells | effectively enhance calcium deposition of MC3T3-E1 cells | significantly enhance calcium deposition of SaOS-2 cells | inhibit calcium deposition on hMSCs only at high concentration | does not affect the growth of MBMMφ cells |  |  |  |  |  |  |  |  |
| > 20 | O=c1cc(-c2ccccc2)oc2ccccc12 [flavone, reference compound] |  |  |  |  |  |  | do not affect the growth of MC3T3-E1 cells |  |  |  |  | does not have obvious effect | does not stimulate the differentiation of MC3T3-E1 cells | does not significantly stimulate the differentiation of MC3T3-E1 cells | do not influence the growth of MBMMφ cells |  |  |  |  |
| 5.4 ± 0.2 | COc1ccc2oc(-c3ccccc3)cc(=O)c2c1 [6-methoxy flavone] | manifestly inhibit the differentiation of MBMMφ cells |  |  |  | efficiently enhance the differentiation of MC3T3-E1 cells |  | do not affect the growth of MC3T3-E1 cells |  |  | greatly inhibits calcium deposition of hMSCs |  |  |  |  |  | do not influence the growth of MBMMφ cells |  |  |  |
| 7.3 ± 0.2 | O=c1cc(-c2ccccc2)oc2ccc(O)cc12 [6-hydroxy flavone] |  |  |  | significantly stimulate the differentiation of MC3T3-E1 cells |  | obviously stimulate the differentiation of MC3T3-E1 cells | do not affect the growth of MC3T3-E1 cells |  | significantly enhance calcium deposition of SaOS-2 cells | does not inhibit calcium deposition even at high concentration |  |  |  |  |  | do not influence the growth of MBMMφ cells | significantly inhibit the differentiation of MBMMφ cells |  |  |

| Compound | IC50 [1] [µM] | effect on differentiation of MBMMφ cells (s-TRAP activity) [1, 11] | effect on differentiation of RAW 264.7 cells (TRAP activity) [2] | toxicity to RAW 264.7 cells [3] | effect on differentiation of MC3T3-E1 cells (ALP activity) ([4]; at 4 μM and 16 μM, FIG. 6) | effect on differentiation of MC3T3-E1 cells (ALP activity) ([4]; at 5 μM and 10 μM, FIG. 5) | effect on differentiation of MC3T3-E1 cells (ALP activity) ([4]; at 10 μM and 50 μM, FIG. 7) | growth of MC3T3-E1 cells (MTT, cytotoxicity) ([5]; mouse) | calcium deposition of MC3T3-E1 cells (Alizarin Red S, OD 562 nm) [6] | calcium deposition of SaOS-2 cells [7] | calcium deposition of hMSCs [8] | growth of MBMMφ cells (MTT, cytotoxicity) ([9]; 0-25 μM, 1 day incubation, medium containing M-CSF) | effect on differentiation of MBMMφ cells (s-TRAP activity) ([1]; 1 μM, 5 μM, 10 μM, 20 μM, in comparison with control) | effect on differentiation of MC3T3-E1 cells (ALP activity) ([4]; 0.25 μM, 1 μM, 4 μM, 16 μM, FIG. 6) | effect on differentiation of MC3T3-E1 cells (ALP activity) ([4]; 0.4 μM, 2 μM, 10 μM, 50 μM, FIG. 7) | growth of MBMMφ cells (MTT, cytotoxicity) [10] | growth of MBMMφ cells (MTT, cytotoxicity) ([9]; not shown) | effect on differentiation of MBMMφ cells (s-TRAP activity) [1, 12] | effect on differentiation of MC3T3-E1 cells (ALP activity) ([4]; at 16 μM, FIG. 6) | growth of MC3T3-E1 cells (MTT, cytotoxicity) ([5]; different concentrations, FIG. 8) |
| --- | --- | --- | --- | --- | --- | --- | --- | --- | --- | --- | --- | --- | --- | --- | --- | --- | --- | --- | --- | --- |
| O=c1cc(-c2ccccc2)oc2cc(O)ccc12 [7-hydroxy flavone] | 10.9 ± 1.3 |  |  |  |  |  |  |  |  | significantly enhance calcium deposition of SaOS-2 cells | inhibit calcium deposition on hMSCs only at high concentration |  |  |  |  |  | do not influence the growth of MBMMφ cells | significantly inhibit the differentiation of MBMMφ cells | enhance effectively the cell differentiation | do not affect the growth of MC3T3-E1 cells |
